Where “and” joins values, the source holds several entries; their conditions need not be identical. Identical values can stand only once. Toxic doses and inconclusive results are not listed. The calls were made as follows: active = survival T/C of 150% or more; inactive = T/C below 125% in these data.
Test system: P388 leukemia ip, CD2F1 mice, survival T/C
Test: NCI In Vivo Anticancer Drug Screen. Data for tumor model P388 Leukemia (intraperitoneal) in CD2F1 (CDF1) mice
Conditions: endpoint: median survival time, higher = longer survival
Outline: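 Mice carrying the transplanted tumor received test compound or vehicle. Survival was recorded in each group, and the value is the treated-group measurement divided by that of the vehicle-treated control group.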

[1] = dose: 25.0 mg/kg/injection, schedule: Q01DX009 (ip), vehicle: saline
[2] = dose: 50.0 mg/kg/injection, schedule: Q01DX009 (ip), vehicle: Klucel (hydroxypropylcellulose) (HPC)
[3] = dose: 50.0 mg/kg/injection, schedule: Q01DX009 (ip), vehicle: saline
[4] = dose: 100.0 mg/kg/injection, schedule: Q01DX009 (ip), vehicle: Klucel (hydroxypropylcellulose) (HPC)
[5] = dose: 100.0 mg/kg/injection, schedule: Q01DX009 (ip), vehicle: saline
[6] = dose: 60.0 mg/kg/injection, schedule: Q01DX005 (ip), vehicle: saline with Tween-80
[7] = dose: 120.0 mg/kg/injection, schedule: Q01DX005 (ip), vehicle: saline with Tween-80
[8] = dose: 240.0 mg/kg/injection, schedule: Q01DX005 (ip), vehicle: saline with Tween-80
[9] = dose: 50.0 mg/kg/injection, schedule: Q01DX005 (ip), vehicle: saline with Tween-80
[10] = dose: 100.0 mg/kg/injection, schedule: Q01DX005 (ip), vehicle: saline with Tween-80
[11] = dose: 60.0 mg/kg/injection, schedule: Q01DX005 (ip), vehicle: Klucel (hydroxypropylcellulose) (HPC)
[12] = dose: 120.0 mg/kg/injection, schedule: Q01DX005 (ip), vehicle: Klucel (hydroxypropylcellulose) (HPC)
[13] = dose: 200.0 mg/kg/injection, schedule: Q01DX005 (ip), vehicle: saline with Tween-80

Measured: T/C

COc1ccc(NC(CCN2CCN(CCC(=NC(C)(C)C)Nc3ccc(OC)cc3)CC2)=NC(C)(C)C)cc1
inactive: dose: 25.0 mg/kg/injection, schedule: Q01DX009 (ip), vehicle: saline with Tween-80 97 % of control | [1] 110 % of control | dose: 50.0 mg/kg/injection, schedule: Q01DX005 (ip), vehicle: Klucel (hydroxypropylcellulose) (HPC) 98 % of control | [2] 110 % of control | dose: 50.0 mg/kg/injection, schedule: Q01DX009 (ip), vehicle: saline with Tween-80 97 % of control | [3] 109 % of control | dose: 100.0 mg/kg/injection, schedule: Q01DX005 (ip), vehicle: Klucel (hydroxypropylcellulose) (HPC) 103 % of control | [4] 110 % of control | dose: 100.0 mg/kg/injection, schedule: Q01DX009 (ip), vehicle: saline with Tween-80 107 % of control | [5] 97 % of control | dose: 200.0 mg/kg/injection, schedule: Q01DX009 (ip), vehicle: saline with Tween-80 116 % of control

[N-]=[N+]=[N-]
inactive: dose: 3.0 mg/kg/injection, schedule: Q01DX009 (ip), vehicle: saline with Tween-80 100 % of control | dose: 6.0 mg/kg/injection, schedule: Q01DX009 (ip), vehicle: saline with Tween-80 105 % of control

COC(=O)c1cc(-c2ccc(C)cc2)c2c(=O)n(-c3ccccc3)[nH]c2n1
inactive: [6] 100 % of control | [7] 100 % of control | [8] 97 % of control

CC(=O)OC1CCC2(C)C(=CCC3C2CCC2(C)C3CC3C(c4ccccc4)=NC(c4ccccc4)C32C(C)=O)C1 (stereo not drawn)
inactive: dose: 100.0 mg/kg/injection, schedule: Q01DX001 (ip), vehicle: saline with Tween-80 93 % of control | dose: 100.0 mg/kg/injection, schedule: Q04DX002 (ip), vehicle: saline with Tween-80 108 % of control | dose: 200.0 mg/kg/injection, schedule: Q01DX001 (ip), vehicle: saline with Tween-80 91 % of control | dose: 200.0 mg/kg/injection, schedule: Q04DX002 (ip), vehicle: saline with Tween-80 100 % of control | dose: 400.0 mg/kg/injection, schedule: Q01DX001 (ip), vehicle: saline with Tween-80 90 % of control | dose: 400.0 mg/kg/injection, schedule: Q04DX002 (ip), vehicle: saline with Tween-80 105 % of control

O=C(O)C1CCC(=O)N1Cc1csc(-c2ccccc2)n1 (stereo not drawn)
inactive: [6] 103 % of control | [7] 93 % of control | [8] 99 % of control

COc1cc(OC)c2c(c1)OC(=O)C(C(C)=O)C2 (stereo not drawn)
inactive: [9] 96 % of control | [10] 112 % of control

N#Cc1sc(=S)n(-c2ccccc2)c1N
inactive: dose: 12.5 mg/kg/injection, schedule: Q01DX009 (ip), vehicle: saline 98 % of control | [1] 107 % of control | [3] 103 % of control and 104 % of control

CCC(=O)Nc1ccc(C(=O)C(C)=O)cc1
inactive: dose: 8.0 mg/kg/injection, schedule: Q01DX009 (ip), vehicle: saline with Tween-80 104 % of control | dose: 16.0 mg/kg/injection, schedule: Q01DX009 (ip), vehicle: saline with Tween-80 104 % of control | dose: 32.0 mg/kg/injection, schedule: Q01DX009 (ip), vehicle: saline with Tween-80 99 % of control

C1COCCOCCOCCO1.[Br][Sn]([Br])([Br])[Br]
inactive: [11] 103 % of control | [12] 107 % of control

O=C(CCl)NNC(=O)CCl
inactive: dose: 12.5 mg/kg/injection, schedule: Q01DX009 (ip), vehicle: Klucel (hydroxypropylcellulose) (HPC) 117 % of control

C[Si](C)(C)CN=P(c1ccccc1)(c1ccccc1)c1ccccc1
inactive: [6] 102 % of control | [7] 103 % of control | [8] 105 % of control

NS(=O)(=O)c1ccc(N=Nc2c(O)n(-c3ccccc3)n(-c3ccccc3)c2=O)cc1
inactive: dose: 100.0 mg/kg/injection, schedule: Q04DX003 (ip), vehicle: Klucel (hydroxypropylcellulose) (HPC) 107 % of control | dose: 200.0 mg/kg/injection, schedule: Q04DX003 (ip), vehicle: Klucel (hydroxypropylcellulose) (HPC) 102 % of control | dose: 400.0 mg/kg/injection, schedule: Q04DX003 (ip), vehicle: Klucel (hydroxypropylcellulose) (HPC) 102 % of control

CC1(CO)CCCC1NCCNC1CCCC1(C)CO (stereo not drawn)
inactive: [6] 102 % of control | [7] 105 % of control

O=C1c2ccccc2OC2CCON12 (stereo not drawn)
inactive: [2] 100 % of control | [4] 100 % of control | dose: 200.0 mg/kg/injection, schedule: Q01DX009 (ip), vehicle: Klucel (hydroxypropylcellulose) (HPC) 116 % of control

COc1ccc(C/C=N/O)c(OC)c1
inactive: dose: 12.5 mg/kg/injection, schedule: Q01DX009 (ip), vehicle: other 91 % of control | dose: 25.0 mg/kg/injection, schedule: Q01DX009 (ip), vehicle: other 89 % of control | dose: 100.0 mg/kg/injection, schedule: Q01DX009 (ip), vehicle: other 93 % of control

CCOC(=O)C1=C(C(=O)c2cccc3ccccc23)C(c2ccc([N+](=O)[O-])cc2)C(C(=O)c2cccc3ccccc23)=C(C(=O)OCC)N1
inactive: [11] 87 % of control and 88 % of control | [12] 87 % of control | dose: 240.0 mg/kg/injection, schedule: Q01DX005 (ip), vehicle: Klucel (hydroxypropylcellulose) (HPC) 86 % of control and 95 % of control

CCOC(=O)Cc1c(C)noc1OC
inactive: dose: 25.0 mg/kg/injection, schedule: Q01DX005 (ip), vehicle: saline with Tween-80 106 % of control | [9] 97 % of control | [10] 99 % of control | [13] 97 % of control

Nc1ncnc2c1ncn2CCOCC(O)CO (stereo not drawn)
inactive: [6] 100 % of control | [7] 95 % of control | [8] 93 % of control

CN(C)c1ncnc2c1ccn2C1OC(CO)C(O)C1O (stereo not drawn)
inactive: dose: 6.25 mg/kg/injection, schedule: Q01DX005 (ip), vehicle: Klucel (hydroxypropylcellulose) (HPC) 106 % of control | dose: 12.5 mg/kg/injection, schedule: Q01DX005 (ip), vehicle: Klucel (hydroxypropylcellulose) (HPC) 109 % of control | dose: 25.0 mg/kg/injection, schedule: Q01DX005 (ip), vehicle: Klucel (hydroxypropylcellulose) (HPC) 117 % of control

COc1ccc2c(c1)CN(C)CO2
inactive: [9] 103 % of control | [10] 102 % of control | [13] 107 % of control

CSC(=S)c1c(C)cccc1C
inactive: dose: 100.0 mg/kg/injection, schedule: Q04DX003 (ip), vehicle: saline with Tween-80 110 % of control | dose: 200.0 mg/kg/injection, schedule: Q04DX003 (ip), vehicle: saline with Tween-80 100 % of control | dose: 400.0 mg/kg/injection, schedule: Q04DX003 (ip), vehicle: saline with Tween-80 113 % of control

C[N+]1(C2CCCCC2c2cccc(O)c2)CCCC1 (stereo not drawn)
inactive: dose: 0.39 mg/kg/injection, schedule: Q01DX009 (ip), vehicle: saline 98 % of control | dose: 0.79 mg/kg/injection, schedule: Q01DX009 (ip), vehicle: saline 104 % of control | dose: 1.56 mg/kg/injection, schedule: Q01DX009 (ip), vehicle: saline 98 % of control

CCCCCCCCCCCCCCCC(=O)N(CCCN(C)C)C1CCC(N(CCCN(C)C)C(=O)CCCCCCCCCCCCCCC)CC1 (stereo not drawn)
inactive: dose: 3.13 mg/kg/injection, schedule: Q01DX009 (ip), vehicle: saline sonified 90 % of control | dose: 6.25 mg/kg/injection, schedule: Q01DX009 (ip), vehicle: saline sonified 90 % of control | dose: 12.5 mg/kg/injection, schedule: Q01DX009 (ip), vehicle: saline sonified 90 % of control

CCCC(=O)O
inactive: [3] 93 % of control | [5] 91 % of control | dose: 200.0 mg/kg/injection, schedule: Q01DX009 (ip), vehicle: saline 90 % of control

Reference: PubChem BioAssay AID330 (DTP/NCI, 2004)
